Results published in US20240294553A1, “SIZE-SELECTIVE ACYCLIC CHELATORS AND THEIR USE FOR THE RECOVERY OF RARE EARTH ELEMENTS” (UT-Battelle, LLC, priority 2023, published 2024).

What was measured:
[1] = Leaching of rare-earth elements from mixed rare-earth hydroxide; details: RT, 26 h, 20 mM lixiviant; for selectivity of leaching of REEs (percent dissolution): pH 8.2, CHES/CAPS buffer, 15 mg/mL (La,Nd,Eu,Dy,Y)OH3, FIG. 11
Procedure: A solution of CHES (400 mM) and CAPS (400 mM) was prepared in H2O. The pH was left unadjusted. Buffered solutions of acyclopa at pH 8.2, 9, and 10 were prepared by adding an aliquot of acyclopa (6.65 mL of a 75.17 mM aqueous stock solution) to a volumetric flask (25 mL) containing CHES/CAPS (12.5 mL). The solution was diluted with concentrated NaOH and H2O to the desired final pH. The final ligand concentration was 20 mM and the final CHES and CAPS concentrations were 200 mM each. Buffered solutions of EDTA were prepared in an analogous manner. For control samples without chelator, CHES/CAPS buffer (200 mM each) was prepared separately for each pH.
Leaching experiments were setup as follows: Various quantities (5±0.3 mg, 10±0.5 mg, and 15±0.5 mg) of (La,Nd,Eu,Dy,Y)OH3 were massed into 2 mL flat-bottomed screw-cap polypropylene tubes. An aliquot of lixiviant solution or buffer only (1 mL) was added to each tube. The samples were rotated end-over-end at 35 RPM and ambient temperature (71±1° F.). At pre-determined time points, the suspensions were centrifuged, and an aliquot of the supernatant (10 μL) was carefully removed and placed into 2% HNO3 (4.990 mL) for ICP-MS analysis. The samples were shaken to break up the pellets and returned to the rotating wheels. At the final time point, the suspensions were filtered via a 96-well filter plate (Pall AcroPrep Advance 0.2 μm Supor Short Tip) and sampled for ICP-MS. The final pH of representative samples was recorded. […] Also, the separation factor was calculated according to the equation below. The leaching of REEs (expressed as percent dissolution) from (La,Nd,Eu,Dy,Y)OH3 by acyclopa as a function of pH (pH 8.2, pH 9, or pH 10) using a CHES/CAPS buffer, RT, 26 h, 20 mM lixiviant, and 5 mg/mL (La,Nd,Eu,Dy,Y)OH3 are shown in FIG. 9. The leaching of REEs (expressed as concentration) from (La,Nd,Eu,Dy,Y)OH3 by acyclopa as a function of solid loading at a pH of 9 using a CHES/CAPS buffer, RT, 26 h, 20 mM lixiviant, and 5-15 mg/mL (La,Nd,Eu,Dy,Y)OH3 are shown in FIG. 10. […]

[2] = Recovery and reuse of acyclopa in multiple leach cycles (oxalic acid stripping)
Procedure: The release of REEs from acyclopa and their subsequent precipitation as REE2(C2O4)3 was investigated as a function of pH and oxalic acid equivalents. Pregnant leach solutions were prepared at pH 8.2 using acyclopa and La(OH)3, and varying equivalents of H2C2O4 were added. The pH of the samples was reduced stepwise to pH 6, 5, 4, and 3 using HCl. The concentration of La remaining in the supernatant at each pH was analyzed by ICP-MS. The release of REEs from acyclopa and their subsequent precipitation as REE2(C2O4)3 as a function of pH and oxalic acid equivalents is shown in FIG. 12.
Next, the ability to reuse acyclopa in multiple leach cycles was investigated. Leaching samples were prepared as described above at pH 8.2 using acyclopa and La(OH)3. […] To this solution, 2 equivalents of oxalic acid were added, and the pH was adjusted to 3 using HCl. The resulting precipitate was removed. The pH of the filtrate was re-adjusted to 8.2 using NaOH, and another portion of La(OH)3 was added. The suspension was stirred for 24 h, and the percent La dissolved was measured by ICP-MS. In subsequent precipitation cycles, only 1 equivalent of oxalic acid was added. Using this method, ˜75% dissolution was maintained over 4 dissolution/precipitation cycles. The results are shown graphically in FIG. 13.

[3] = Protonation constants and lanthanide complex stabilities by potentiometric titration; type: binding
Procedure: Protonation constants and lanthanide (Ln) stability constants of acyclopa and acyclopa-XL were obtained by potentiometric titration using either a Metrohm Titrando 888 titrator or an 855 Robotic Titrosampler connected to an 805 Dosimat. Both titration systems were equipped with Ross Orion combination electrodes (8103BN, ThermoFisher Scientific), Metrohm 806 exchange units with automatic burets (10 mL), and Tiamo 2.5 software. The titration vessel was fitted with a removable glass cell and thermostated at 25° C. using an Isotemp 500LC recirculating chiller (Fisher Scientific). CO2 was excluded from the titration vessel using a small positive pressure of argon bubbled through 30 wt % KOH. […]
Before every ligand or ligand-metal titration, the electrode was calibrated in terms of the hydrogen-ion concentration by titrating a solution of standardized HCl (0.005 M) containing supporting electrolyte (KCl=0.095 M) with standardized KOH. Data within the pH ranges of 2.3-3.2 and 10.8-11.3 were analyzed using the program Glee (version 3.0.21) to obtain the standard electrode potential (E0) and slope factor. […] Their exact concentrations were determined potentiometrically from the two sharp endpoints of their titration curves using the formula ((VEP2−VEP1)/npKa)*[KOH]. […]

Δ log KLa-Lu (difference of stability constants log KML) ([3]; 25° C., ionic strength 0.1 M KCl, La^3+ versus Lu^3+) | Compound | selectivity of leaching of REEs (percent dissolution) [1] | percent La dissolved (dissolution of La(OH)3) ([2]; pH 8.2, 24 h, maintained over 4 dissolution/precipitation cycles, ICP-MS, FIG. 13) [%] | initial dissolution of La(OH)3 ([2]; pH 8.2, first leach) | affinity for rare-earth elements (in words) ([3]; log KML versus ionic radius, FIG. 6) | effect of increasing solid loading on La/Y separation ([1]; pH 9, CHES/CAPS buffer, 5-15 mg/mL (La,Nd,Eu,Dy,Y)OH3, FIG. 10)
 | O=C(O)CN(CCN(CC(=O)O)CC(=O)O)CC(=O)O [EDTA, ethylenediaminetetraacetic acid, reference compound] | fails to demonstrate any selectivity |  |  |  | 
4.27 | O=C(O)c1cccc(CN(CCO)CCOCCOCCN(CCO)Cc2cccc(C(=O)O)n2)n1 [acyclopa, 6,6′-(2,11-bis(2-hydroxyethyl)-5,8-dioxa-2,11-diazadodecane-1,12-diyl)dipicolinic acid] | preferentially leaches large over small REEs | ~75 | nearly all of the La(OH)3 was dissolved initially | high affinity for large, light REEs and low affinity for small, heavy REEs | significantly increases separative leaching of La from Y
